TGI data for two compounds are collected here from PubChem BioAssay (NCI).

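Compound exposure: 48 hours, 5 concentrations, 96-well plates. Definition used: TGI = concentration required for complete inhibition of growth.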 Bounds are passed on as bounds.

Some test systems named below: MALME-3M melanoma; MDA-N; UACC-62 melanoma; HL-60(TB) leukemia; NCI/ADR-RES ovarian; M14 melanoma; K-562 leukemia; OVCAR-4 ovarian; DU-145 prostate; SF-268 CNS; HCC-2998 colon.
Experiment in all cases: NCI anticancer screen, dose series, 48 h

Consider `CC(=O)NC1C(OCc2ccccc2)OC(CO)C(O)C1OCC(=O)NC(C(=O)NC(CCC(=O)NCCCCCC(=O)Nc1ccc2c(c1)CN1C(=O)c3ccccc3C1=N2)C(N)=O)C(C)C` (configuration not stated), for which the TGI in the experiment with MALME-3M melanoma is 46.5 µM; in the experiment on MDA-N it was over 100 µM; with UACC-62 melanoma, 40.9 µM; with HL-60(TB) leukemia, over 100 µM; in the experiment on NCI/ADR-RES ovarian, over 100 µM; in the experiment with M14 melanoma it was over 100 µM. Besides, the TGI with K-562 leukemia is over 100 µM; in the experiment on OVCAR-4 ovarian, 53 µM; in the experiment on DU-145 prostate it was over 100 µM; with SF-268 CNS, 41.8 µM; in the experiment with HCC-2998 colon, over 100 µM.
For `CCOC(=O)N1c2ccccc2N(C(=O)OCC)C1CC(=O)/C=C/c1ccccc1`, the TGI is 18.9 µM in the experiment with MALME-3M melanoma; 15.8 µM in the experiment with MDA-N; 10.2 µM with UACC-62 melanoma; 6.94 µM in the experiment on HL-60(TB) leukemia; 9.77 µM with NCI/ADR-RES ovarian; 19.3 µM in the experiment with M14 melanoma. In addition, the TGI was over 30.7 µM in the experiment on K-562 leukemia; 6.33 µM in the experiment with OVCAR-4 ovarian; 9.11 µM with DU-145 prostate; 9.82 µM with SF-268 CNS; 10.6 µM in the experiment on HCC-2998 colon.
